Laboratory results taken from patent US12612386B2, “Heteroaryl-triazole compounds as pesticides” (Bayer Aktiengesellschaft, priority 2020, dated 2026).

Key:
Format in all cases: in vivo
[1] = tested on: fall armyworm larvae (Spodoptera frugiperda); experiment: whole plant or invertebrate; settings: 168 h
Summary of the method: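 Percent kill of Spodoptera frugiperda caterpillars, read 7 days after infestation of dried, spray-treated Zea mays leaf pieces. Spray preparation: compound in acetone plus dimethylformamide, diluted with emulsifier-containing water.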

[2] = tested on: adult cat fleas (Ctenocephalides felis); experiment: Ctenocephalides felis in-vitro contact test, adult cat flea; settings: 5 μg/cm^2 (=500 g/ha), after 48 hours
Procedure: Ctenocephalides felis—In-Vitro Contact Tests Adult Cat Flea
(§1) 9 mg compound is solved in 1 mL acetone and diluted with acetone to the desired concentration. 250 μL of the test solution is filled in 25 mL glass test tubes and homogeneously distributed on the inner walls by rotation and tilting on a shaking device (2 h at 30 rpm). With a compound concentration of 900 ppm, an inner surface of 44.7 cm^2 and a homogeneous distribution, a dose of 5 μg/cm^2 is achieved.
(§2) After the solvent has evaporated, each test tube is filled with 5-10 adult cat fleas (Ctenocephalides felis), closed with a perforated lid and incubated in a lying position at room temperature and relative humidity. After 48 hours efficacy is determined. The fleas are patted on the ground of the tubes and are incubated on a heating plate at 45-50° C. for at most 5 minutes. Immotile or uncoordinated moving fleas, which are not able to escape the heat by climbing upwards, are marked as dead or moribund.
An efficacy of 100% means all fleas are dead or moribund; 0% means no fleas are dead or moribund.

[3] = tested on: adult brown dog ticks (Rhipicephalus sanguineus); experiment: Rhipicephalus sanguineus in-vitro contact test, adult brown dog ticks; settings: 48 h, read-out: efficacy (ticks dead or moribund)
Procedure: Rhipicephalus sanguineus—In-Vitro Contact Tests with Adult Brown Dog Ticks
as §1
as §2, with “brown dog ticks (Rhipicephalus sanguineus),” for “cat fleas (Ctenocephalides felis),”, “ticks” for “fleas”, “ticks,” for “fleas,”
An efficacy of 100% means all ticks are dead or moribund; 0% means no ticks are dead or moribund.

[4] = tested on: cattle tick larvae (Rhipicephalus microplus), strain Parkhurst, resistant against synthetic pyrethroids; experiment: Rhipicephalus (Boophilus) microplus in-vitro contact test, larval cattle tick; settings: 5 μg/cm^2 (=500 g/ha), after 48 hours
Procedure: Rhipicephalus (Boophilus) Microplus—In-Vitro Contact Tests Larval Cattle Tick (Strain Parkhurst, Resistant Against Synthetic Pyrethroids)
as §1
After the solvent has evaporated, each test tube is filled with 20-50 cattle tick larvae (Rhipicephalus microplus), closed with a perforated lid and incubated in a horizontal position at 85% relative humidity and 27° C. in an incubator. After 48 hours efficacy is determined. The larvae are patted on the ground of the tubes and negative geotactic behavior is recorded.
An efficacy of 100% means all larvae are dead or moribund; 0% means no larvae are dead or moribund.

[5] = tested on: larvae of the southern green stink bug (Nezara viridula); experiment: whole plant or invertebrate; settings: 96 h
Summary of the method: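 Percent mortality of southern green stink bug larvae was recorded at day 4, with 100% meaning all dead. The larvae were placed on barley sprayed with the test solution. That solution was prepared from acetone/dimethylformamide concentrate diluted in emulsifier-containing water (1000 ppm).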

[6] = tested on: green peach aphid (Myzus persicae); experiment: Myzus persicae spray test (MYZUPE); settings: 120 h, 100 g/ha, after 5 days
Summary of the method: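 Percent aphid kill, with 0% meaning none killed, was read 5 days after spraying. The preparation (acetone–DMF solvent, water with 1000 ppm emulsifier) was applied to Brassica pekinensis leaf disks carrying mixed-instar green peach aphids.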

[7] = tested on: larvae of the banded cucumber beetle (Diabrotica balteata); experiment: Diabrotica balteata spray test; settings: 168 h, 100 g/ha (=32 μg/well), after 7 days, read-out: efficacy (seedling growth)
Summary of the method: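 Efficacy is seedling survival after 7 days, where 0% means no seedlings grew and 100% means growth equal to untreated, uninfested controls. Wheat seedlings, germinated on agar for 1 day, were sprayed with the aqueous emulsifier dilution (acetone/DMF solvent) and then exposed to 10–20 banded cucumber beetle larvae.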

[8] = tested on: brown planthopper (Nilaparvata lugens); experiment: Nilaparvata lugens spray test; settings: 96 h
Procedure: Nilaparvata lugens—Spray Test
• Solvent: 78.0 parts by weight of acetone • 1.5 parts by weight of dimethylformamide • Emulsifier: alkylarylpolyglycol ether
To produce a suitable preparation of active compound, 1 part by weight of active compound is mixed with the stated amount of solvents and is diluted with water, containing an emulsifier concentration of 1000 ppm, to the desired concentration. Further test concentrations are prepared by dilution with emulsifier containing water.
Rice plants (Oryza sativa) are sprayed with a preparation of the active ingredient of the desired concentration and the plants are infested with the brown planthopper (Nilaparvata lugens).
After 4 days mortality in % is determined. 100% means all planthoppers have been killed and 0% means none of the planthoppers have been killed.

| Compound | mortality at 100 g/ha [1] | efficacy (fleas dead or moribund) [2] | pest or weed control at 5 µg/cm2, 500 g/ha [3] | efficacy (larvae dead or moribund) [4] | mortality at 500 g/ha [5] | mortality at 100 g/ha [6] | pest or weed control at 32 µg/disc, 100 g/ha [7] | mortality at 500 g/ha [8] |
| --- | --- | --- | --- | --- | --- | --- | --- | --- |
| CC(C)N(C)C(=O)c1cc(-n2ncnc2[C@H](C)NC(=O)c2cc(OC(F)F)cc(C3CC3)c2)ncn1 [I-68] | 100% | 100% | 100% | 100% |  |  |  |  |
| C[C@H](NC(=O)c1cc(Cl)cc(Cl)c1)c1ncnn1-c1cc(C(N)=O)ncn1 [I-69] | 100% | 100% | 100% | 100% | 100% | 70% | 100% |  |
| Cc1nc([C@H](C)NC(=O)c2cc(C(F)(F)F)cc(C(F)(F)F)c2)n(-c2cc(C(=O)N(C)CC3CC3)ncn2)n1 [I-75] | 100% | 100% | 100% | 100% | 100% |  | 100% | 100% |
| C[C@H](NC(=O)c1cc(C(F)(F)F)cc(C(F)(F)F)c1)c1ncnn1-c1cc(C(=O)N(C)CC2CC2)ncn1 [I-76] | 100% | 100% | 100% | 100% | 100% |  | 100% | 100% |
| C[C@H](NC(=O)c1cc(F)cc(OC(F)(F)F)c1)c1ncnn1-c1cc(C(N)=O)ncn1 [I-80] | 100% | 100% | 100% | 100% | 100% | 100% | 100% | 100% |
| Cc1nc([C@H](C)NC(=O)c2cc(Cl)cc(OC(F)(F)F)c2)n(-c2cc(C(N)=O)ncn2)n1 [I-85] | 100% | 100% | 100% | 100% | 100% | 100% | 100% | 90% |
| CNC(=O)c1cc(-n2nc(C)nc2[C@H](C)NC(=O)c2cc(Cl)cc(OC(F)(F)F)c2)ncn1 [I-87] | 100% | 100% | 100% | 100% | 100% | 100% | 100% |  |
| Cc1nc([C@H](C)NC(=O)c2cc(Br)cc(OC(F)F)c2)n(-c2cc(C(N)=O)ncn2)n1 [I-89] | 100% | 100% | 100% | 100% | 100% | 100% | 100% |  |
| Cc1nc([C@H](C)NC(=O)c2cc(Cl)cc(Cl)c2)n(-c2cc(C(N)=O)ncn2)n1 [I-95] | 100% | 100% | 100% | 100% | 100% | 90% | 100% |  |
| Cc1nc([C@H](C)NC(=O)c2cc(OC(F)F)cc(OC(F)F)c2)n(-c2cc(C(N)=O)ncn2)n1 [I-98] | 100% | 100% | 100% | 100% | 100% | 100% | 100% |  |
